Article PMC10657444, “Design and evaluation of tadpole-like conformational antimicrobial peptides” (Communications Biology, 2023)
Converted amounts (≈) assume the structure as drawn. Read-outs that look alike come from different tables or passages of the source. Non-standard residues stand in square brackets, D forms with d. Residues, ends and D or L forms follow the SMILES beside them. *: point of attachment. Octanoyl = CCCCCCCC(=O)*

Experiments:
[1] = test system: MRSA 3393; type: cell-based, Staphylococcus aureus
Source text: (§1) Bacteria were cultivated in Luria-Bertani (LB) broth.

[2] = test system: MRSA ATCC 43300; type: cell-based, Staphylococcus aureus
Source text: as §1

[3] = test system: MRSA USA 300; type: cell-based, Staphylococcus aureus
Source text: as §1

[4] = test system: MRSA; type: cell-based, Staphylococcus aureus
Source text: as §1

[5] = test system: E. coli ATCC 25922; type: cell-based, Escherichia coli
Source text: as §1

[6] = test system: E. coli S; type: cell-based, Escherichia coli
Source text: as §1

[7] = test system: A. baumannii 1318; type: cell-based, Acinetobacter baumannii
Source text: as §1

[8] = test system: A. baumannii 1337; type: cell-based, Acinetobacter baumannii
Source text: as §1

[9] = test system: K. pneumoniae 3026; type: cell-based, Klebsiella pneumoniae
Source text: as §1

[10] = test system: K. pneumoniae ATCC 700603; type: cell-based, Klebsiella pneumoniae
Source text: as §1

[11] = MTT cytotoxicity assay; type: cell-based, human; settings: human
Method: (§2) To determine the cytotoxicity of the peptides, we used the MTT (3-(4,5)-dimethylthiahiazo (-z-y1)-3,5-di-phenytetrazoliumromide) dye reduction assay against HEK293T cells. In brief, the 100 μL of cells in 96-well plate were incubated for 24 h at 37 °C, 5% CO2, and then peptide solutions (concentrations ranging from 100 to 0.39 μM) were added and further incubated for 72 h. MTT solution (5 mg/mL) was added and further incubated for 4 h. After incubation, the precipitated MTT formazan crystal was dissolved by addition of dimethyl sulfoxide (DMSO). […]

[12] = test system: HEK293T cells; experiment: MTT cytotoxicity assay; type: cell-based, human
Method: as §2

[13] = test system: sheep red blood cells; experiment: Hemolysis assay; settings: red cells of sheep, 1 h
Method: To evaluate the hemolysis effects of peptides, red blood hemolysis was performed as described with minimum modifications. Sterile defibrated sheep blood was purchased from Guangzhou Hongquan Biotechnology Co., LTD. Blood cells were adjusted to 2 × 10^9 cells/mL in phosphate-buffered saline (PBS, pH 7.4). In total, 98 μL sheep red blood cell suspension was incubated with 2 μL of peptides at different concentrations ranging from 3.13 to 100 µM. After incubation for 1 h at 37 °C, the cells were centrifuged and the absorbance of the supernatant was measured at 450 nm. The value for “zero hemolysis” was determined using sterile PBS, while 100% hemolysis was established using 1.5% (v/v) Triton X-100. Hemolysis of testing sample was calculated as the percentage of Triton X-100-induced hemolysis.

[14] = HEK293T cells, OD450, cytotoxicity (Fig 2a), replicates

MIC Gram+ MRSA 3393 [1]; 3393 [µM]	MIC Gram+ MRSA ATCC 43300 ([2]; ATCC 43300) [µM]	MIC Gram+ MRSA USA 300 [3] [µM]	MIC Gram- E. coli ATCC 25922 [5] [µM]	MIC Gram- E. coli S [6] [µM]	MIC Gram- A. b 1318 [7] [µM]	MIC Gram- A. b 1337 [8] [µM]	MIC Gram- K. p 3026 [9] [µM]	MIC Gram- K. p ATCC 700603 [10] [µM]	SMILES	other results
3.13 (≈ 4.29 µg/mL)	50 (≈ 68.5 µg/mL)	6.25 (≈ 8.56 µg/mL)	> 100	> 100	> 100	> 100	> 100	> 100	CC[C@H](C)[C@H](NC(=O)[C@H](CCCNC(=N)N)NC(=O)[C@H](CO)NC(=O)[C@H](CC(C)C)NC(=O)[C@H](Cc1ccccc1)NC(=O)[C@H](Cc1ccccc1)NC(=O)[C@H](Cc1ccccc1)NC(=O)[C@H](Cc1ccccc1)NC(=O)[C@@H](N)Cc1ccccc1)C(=O)N[C@@H](Cc1ccccc1)C(N)=O [FF-SHf] (H-FFFFFLSRIF-NH2; N-terminus assumed)	MICs against MRSA [4]: 3.13 to 50 µM
1.57 (≈ 2.03 µg/mL)	1.57 (≈ 2.03 µg/mL)	3.13 (≈ 4.04 µg/mL)	12.5 (≈ 16.1 µg/mL)	50 (≈ 64.6 µg/mL)	25 (≈ 32.3 µg/mL)	25 (≈ 32.3 µg/mL)	100 (≈ 129 µg/mL)	> 100	CC[C@H](C)[C@H](NC(=O)[C@H](CCCNC(=N)N)NC(=O)[C@H](CCCNC(=N)N)NC(=O)[C@H](CC(C)C)NC(=O)[C@H](Cc1ccccc1)NC(=O)[C@H](Cc1ccccc1)NC(=O)[C@H](Cc1ccccc1)NC(=O)[C@@H](N)Cc1ccccc1)C(=O)N[C@@H](Cc1ccccc1)C(N)=O [F-SHf(R^5)] (H-FFFFLRRIF-NH2; N-terminus assumed)	IC50 at 72 h [11]: 4.6 µM; viability at 72 h, 0.39 µM [11, 14]: 102%; viability at 72 h, 0.78 µM [11, 14]: 89.7%; viability at 72 h, 1.57 µM [11, 14]: 89.3%; viability at 72 h, 3.13 µM [11, 14]: 78.6%; viability at 72 h, 6.25 µM [11, 14]: 40.1%; viability at 72 h, 12.5 µM [11, 14]: 20.8%; viability at 72 h, 25 µM [11, 14]: 12.3%; viability at 72 h, 50 µM [11, 14]: 16.4%; viability at 72 h, 100 µM [11, 14]: 17.1%; toxicity / cytotoxicity against HEK293T cells (in words) [12]: high toxicity; HC10 (concentration inducing 10% hemolysis) [13]: 7.9 µM
> 100	> 100	> 100	> 100	> 100	> 100	> 100	> 100	> 100	CC[C@H](C)[C@H](NC(=O)[C@H](CCCNC(=N)N)NC(=O)[C@H](CCC(=O)O)NC(=O)[C@H](CC(C)C)NC(=O)[C@H](Cc1ccccc1)NC(=O)[C@H](Cc1ccccc1)NC(=O)[C@@H](N)Cc1ccccc1)C(=O)N[C@@H](Cc1ccccc1)C(N)=O [SHf(E^5)] (H-FFFLERIF-NH2; N-terminus assumed)	–
6.25 (≈ 9.05 µg/mL)	6.25 (≈ 9.05 µg/mL)	6.25 (≈ 9.05 µg/mL)	50 (≈ 72.4 µg/mL)	25 (≈ 36.2 µg/mL)	6.25 (≈ 9.05 µg/mL)	12.5 (≈ 18.1 µg/mL)	> 100	100 (≈ 145 µg/mL)	CC[C@@H](C)[C@@H](NC(=O)[C@@H](CCCNC(=N)N)NC(=O)[C@@H](CCCNC(=N)N)NC(=O)[C@@H](CC(C)C)NC(=O)[C@@H](Cc1ccccc1)NC(=O)[C@H](N)CCCNC(=N)N)C(=O)N[C@H](Cc1ccccc1)C(=O)N[C@H](Cc1ccccc1)C(=O)N[C@H](Cc1ccccc1)C(=O)N[C@H](Cc1ccccc1)C(N)=O [D-HT2] (H-[dR][dF][dL][dR][dR][dI][dF][dF][dF][dF]-NH2; N-terminus assumed)	–
–	1.57 (≈ 2.26 µg/mL)	3.13 (≈ 4.5 µg/mL)	> 100	100 (≈ 144 µg/mL)	50 (≈ 71.9 µg/mL)	> 100	> 100	> 100	CC[C@H](C)[C@H](NC(=O)[C@H](CCCNC(=N)N)NC(=O)[C@H](CCCNC(=N)N)NC(=O)[C@H](CC(C)C)NC(=O)[C@H](Cc1ccccc1)NC(=O)[C@H](Cc1ccccc1)NC(=O)[C@H](Cc1ccccc1)NC(=O)[C@H](Cc1ccccc1)NC(=O)[C@@H](N)Cc1ccccc1)C(=O)N[C@@H](Cc1ccccc1)C(N)=O [FF-SHf(R^5)] (H-FFFFFLRRIF-NH2; N-terminus assumed)	MIC Gram+ MRSA 3393 [1]: 1.57 µM (≈ 2.26 µg/mL); MIC Gram+ MRSA ATCC 43300 [2]: 1.57 µM (≈ 2.26 µg/mL)
> 100	50 (≈ 45.4 µg/mL)	> 100	> 100	> 100	> 100	> 100	> 100	> 100	CCCCCCCC(=O)N[C@@H](Cc1ccccc1)C(=O)N[C@@H](CC(C)C)C(=O)N[C@@H](CO)C(=O)N[C@@H](CCCNC(=N)N)C(=O)N[C@H](C(=O)N[C@@H](Cc1ccccc1)C(N)=O)[C@@H](C)CC [OA-SHf] (Octanoyl-FLSRIF-NH2)	–

Continued, molecule first:

SMILES	MIC Gram+ MRSA 3393 [1]; 3393 [µM]	MIC Gram+ MRSA ATCC 43300 ([2]; ATCC 43300) [µM]	MIC Gram+ MRSA USA 300 [3] [µM]	MIC Gram- E. coli ATCC 25922 [5] [µM]	MIC Gram- E. coli S [6] [µM]	MIC Gram- A. b 1318 [7] [µM]	MIC Gram- A. b 1337 [8] [µM]	MIC Gram- K. p 3026 [9] [µM]	MIC Gram- K. p ATCC 700603 [10] [µM]	other results
CC[C@H](C)[C@H](NC(=O)[C@H](CCCNC(=N)N)NC(=O)[C@H](CO)NC(=O)[C@H](CC(C)C)NC(=O)[C@H](Cc1ccccc1)NC(=O)[C@H](Cc1ccccc1)NC(=O)[C@H](Cc1ccccc1)NC(=O)[C@H](Cc1ccc(O)cc1)NC(=O)[C@@H](N)Cc1ccc(O)cc1)C(=O)N[C@@H](Cc1ccccc1)C(N)=O [YY-SHf] (H-YYFFFLSRIF-NH2; N-terminus assumed)	50 (≈ 70.1 µg/mL)	6.25 (≈ 8.76 µg/mL)	6.25 (≈ 8.76 µg/mL)	> 100	> 100	> 100	> 100	> 100	> 100	MICs against MRSA [4]: 3.13 to 50 µM
CC[C@H](C)[C@H](NC(=O)[C@H](CCCNC(=N)N)NC(=O)[C@@H](CCCNC(=N)N)NC(=O)[C@H](CC(C)C)NC(=O)[C@H](Cc1ccccc1)NC(=O)[C@H](Cc1ccccc1)NC(=O)[C@H](Cc1ccccc1)NC(=O)[C@@H](N)Cc1ccccc1)C(=O)N[C@@H](Cc1ccccc1)C(N)=O [F-SHf(dR^5)] (H-FFFFL[dR]RIF-NH2; N-terminus assumed)	3.13 (≈ 4.04 µg/mL)	3.13 (≈ 4.04 µg/mL)	3.13 (≈ 4.04 µg/mL)	> 100	25 (≈ 32.3 µg/mL)	25 (≈ 32.3 µg/mL)	25 (≈ 32.3 µg/mL)	> 100	> 100	–
CC[C@H](C)[C@H](NC(=O)[C@H](CCCNC(=N)N)NC(=O)[C@H](CO)NC(=O)[C@H](CC(C)C)NC(=O)[C@H](Cc1ccccc1)NC(=O)[C@@H](N)Cc1ccccc1)C(=O)N[C@@H](Cc1ccccc1)C(N)=O [SHfΔ1F] (H-FFLSRIF-NH2)	> 100	> 100	> 100	> 100	> 100	> 100	> 100	> 100	> 100	–
CC[C@H](C)[C@H](NC(=O)[C@H](CCCNC(=N)N)NC(=O)[C@H](CO)NC(=O)[C@H](CC(C)C)NC(=O)[C@H](Cc1ccccc1)NC(=O)[C@H](Cc1ccccc1)NC(=O)[C@H](Cc1ccccc1)NC(=O)[C@@H](N)Cc1ccc(O)cc1)C(=O)N[C@@H](Cc1ccccc1)C(N)=O [Y-SHf] (H-YFFFLSRIF-NH2; N-terminus assumed)	12.5 (≈ 15.5 µg/mL)	12.5 (≈ 15.5 µg/mL)	12.5 (≈ 15.5 µg/mL)	> 100	> 100	> 100	> 100	> 100	> 100	–
